Laboratory results reported in PubChem BioAssay (NCI).
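Results reflect a 48-hour exposure of cells in 96-well plates to compound at five concentrations. The concentration for 50% growth inhibition is given as GI50. The concentration for full growth arrest is given as TGI.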

Tests used:
Assay in all cases: inhibition of tumour cell growth, NCI panel, 48 h
[1] = tested on: HOP-92 NSCLC
[2] = tested on: NCI-H226 lung
[3] = tested on: RXF 393 renal
[4] = tested on: SK-MEL-2 melanoma
[5] = tested on: SN12C renal
[6] = tested on: IGROV1 ovarian
[7] = tested on: K-562 leukemia
[8] = tested on: OVCAR-8 ovarian
[9] = tested on: SF-268 CNS
[10] = tested on: UACC-257 melanoma

SMILES	GI50 [1]	TGI [1]	GI50 [2]	TGI [2]	GI50 [3]	TGI [3]	GI50 [4]	TGI [4]	GI50 [5]	TGI [5]	GI50 [6]	TGI [6]	GI50 [7]	TGI [7]	GI50 [8]	TGI [8]	GI50 [9]	TGI [9]	GI50 [10]	TGI [10]
N=C(N)c1ccc(-c2ccc(-c3ccccc3)s2)cc1	1.55 µM	3.34 µM	3.01 µM	14.6 µM	1.72 µM	3.39 µM	1.97 µM	4.1 µM	1.72 µM	3.41 µM										
O=[N+]([O-])c1ccccc1NC1c2ccccc2Oc2ccccc21	4.22 µM	> 100 µM	5.91 µM	> 100 µM	3.35 µM	16.6 µM	8.43 µM	> 100 µM	6.17 µM	> 100 µM	16.9 µM	> 100 µM	3.69 µM	> 100 µM	6.73 µM	> 100 µM	8.06 µM	> 100 µM	7.2 µM	> 100 µM
C=C1C(=O)OC2/C=C(/C)C3CC(O)C(C)(CC(OC(=O)/C(C)=C/C)C12)O3 (stereo unspecified)		8.68 µM		35.3 µM		3.49 µM		7.34 µM		11.3 µM		18.7 µM		> 28.8 µM		3.99 µM		14.4 µM		17.6 µM
O=C1C=CC2=[N+]([O-])C(c3ccccc3)(c3ccccc3)C(=Nc3ccccc3)C2=C1		3.48 µM		22.3 µM		3.04 µM		40.7 µM		3.96 µM		3.45 µM		4.34 µM		3.39 µM		11.4 µM		4.11 µM
COc1cc(/C=C/c2cc(/C=C/c3ccc(O)c(OC)c3)nc(N)n2)ccc1O	1.26 µM	5.19 µM	1.83 µM	4.34 µM					2.74 µM	> 100 µM	2.95 µM	7.08 µM	2.3 µM	8.31 µM	2.19 µM	7.24 µM	2.11 µM	15.6 µM	1.53 µM	3.5 µM
CCNc1nnc(-c2nsc3ccccc23)s1		> 100 µM				> 100 µM		> 100 µM		> 100 µM		> 100 µM		> 100 µM		> 100 µM		80.9 µM		> 100 µM
Cc1ccc([N+](=O)[O-])cc1S(=O)(=O)Nc1ccc(C2=NNC(c3ccccc3O)C2)cc1 (stereo unspecified)		> 100 µM		> 100 µM		40.5 µM		65.6 µM		82.9 µM		> 100 µM		> 100 µM		> 100 µM		> 100 µM		> 100 µM
CN1CCCCC(C#N)(c2ccccc2)CC1 (stereo unspecified)		> 100 µM				> 100 µM						> 100 µM		> 100 µM		> 100 µM		> 100 µM		> 100 µM
C=C1C(=O)C[C@@]23CCC[C@@]12CC(OCOC)C3 (stereo partly specified)		7.43 µM		4.66 µM		2.17 µM		11.2 µM		4.53 µM		6.02 µM		> 51.5 µM		9.96 µM		17.5 µM		7.82 µM
Nc1nc(Cl)cc(OCC2(CO)CC(OCc3ccccc3)C2)n1 (stereo unspecified)	49.9 µM		74 µM		48.6 µM				76.5 µM				36.5 µM		66.6 µM				49.5 µM	
CC(C)CCC[C@@H](C)C1CCC2[C@@H]3CC=C4C[C@@H](C(=O)NCC[N+](C)(C)CCCS(=O)(=O)[O-])CC[C@]4(C)C3CC[C@@]21C (stereo partly specified)				37.9 µM		36.5 µM		32.4 µM		32.6 µM		32.6 µM		29.9 µM		35 µM		37.8 µM		34.8 µM
COC(=O)c1cccc(N[C@@H]2c3cc4c(cc3C(c3cc(OC)c(O)c(OC)c3)[C@H]3C(=O)OCC32)OCO4)c1 (stereo partly specified)		7.14 µM		3.6 µM		15.9 µM		> 63 µM				> 50.7 µM		20.6 µM		> 37 µM		> 42.5 µM		7.82 µM
CC(=O)Oc1ccc2c(c1)oc1c3ccc(OC(C)=O)cc3n(C)c(=O)c21		> 100 µM		53.1 µM		> 100 µM				66 µM		> 100 µM		> 100 µM		79.3 µM		78.2 µM		> 100 µM
CCN(CC)CCCNc1ncc(C)c2[nH]c3ccncc3c12		26.3 µM		20.3 µM		23 µM		23.6 µM		30.5 µM		27.3 µM		> 100 µM		96.8 µM		32.4 µM		18.5 µM
Cc1cc(C)c2c(c1)CC1(Cc3c(C)ccc(C)c3C1=O)C2=O (stereo unspecified)		> 100 µM		> 100 µM		> 100 µM		> 100 µM		> 100 µM		> 100 µM		> 100 µM		> 100 µM		> 100 µM		> 100 µM
S=P1(N2CCCCC2)Oc2ccc3ccccc3c2-c2c(ccc3ccccc23)O1		> 100 µM		> 100 µM		> 100 µM		> 100 µM		> 100 µM		> 100 µM		> 100 µM		> 100 µM		> 100 µM		> 100 µM
